According to patent US10190093B2, “Artificial oocyte activation” (The Curators of the University of Missouri, priority 2013, dated 2019):
“Also recorded” adds a separate entry of the source.

Tests used:
Type in all cases: cell-based, pig
SCNT embryos = assay: TPEN activation method on the development of SCNT embryos; details: SCNT embryos activated with TPEN (200 μM, 30 min) as major activating reagent
Experimental: At the end of the culture, where applicable, the frequency of cleaved embryos and blastocysts, and total cell number in the blastocysts were recorded. Hoechst 33342 (1.2 mg/mL) was used to stain nuclei and the embryos were then evaluated by epi-fluorescence microscopy. Additionally, the effect of the TPEN activation method alone on the development of SCNT embryos was tested.

[1] = system: Metaphase II porcine oocytes; assay: Parthenogenetic activation of porcine oocytes by TPEN alone
Experimental: Oocytes were obtained from either pre-pubertal gilt ovaries from an abattoir (Farmland Foods Inc., Milan, Mo.), or sow-derived oocytes that were purchased from Applied Reproductive Technology (Madison, Wis.). Immature oocytes from gilt ovaries were aspirated from medium size (3-6 mm) follicles by using an 18 gauge hypodermic needle attached to a 10 mL syringe. Oocytes with evenly dark cytoplasm and intact surrounding cumulus cells were then selected for maturation. Around 50 cumulus oocyte complexes were place in a well containing 500 μL of maturation medium, TCM 199 (Invitrogen, Grand Island, N.Y.) with 3.05 mM glucose, 0.91 mM sodium pyruvate, 0.57 mM cysteine, 10 ng/mL epidermal growth factor (EGF), 0.5 mg/mL luteinizing hormone (LH), 0.5 mg/mL follicle stimulating hormone (FSH), 10 ng/mL gentamicin (APP Pharm, Schaumburg, Ill.), and 0.1% polyvinyl alcohol (PVA) for 42-44 hr at 38.5° C., 5% CO2, in humidified air. The oocytes from sows were shipped overnight in maturation medium (TCM199 with 2.9 mM Hepes, […], 10 ng/mL EGF, 0.5 mg/mL p-FSH, 0.91 mM pyruvate, 0.5 mM cysteine, 10% porcine follicular fluid, 25 ng/mL gentamicin) and transferred into fresh medium at 24 hr. At the end of the maturation, the surrounding cumulus cells were removed from the oocytes by vortexing for 3 min in the presence of 0.1% hyaluronidase. Oocytes with a visible polar body were selected in manipulation medium (TCM199 with 0.6 mM NaHCO3, 2.9 mM Hepes, 30 mM NaCl, 10 ng/mL gentamicin, and 3 mg/mL bovine serum albumin [BSA]; and osmolarity of 305) and then used for the experiments. Different oocyte activation methods were used for the experiments. As conventional activation methods, either electrical or chemical activation was used. For electrical activation, mature oocytes were activated in activation medium (0.3 M mannitol, 1.0 mM CaCl2, 0.1 mM MgCl2, and 0.5 mM Hepes) by two direct-current (DC) pulses (1-sec interval) at 1.2 kV/cm for 30 μsec (using BTX Electro Cell Manipulator, Harvard Apparatus, Holliston, Mass.). […] For TPEN mediated activation, mature oocytes were incubated in TL-Hepes media with various concentrations of TPEN for different durations. […] At the end of the culture, where applicable, the frequency of cleaved embryos and blastocysts, and total cell number in the blastocysts were recorded. Hoechst 33342 (1.2 mg/mL) was used to stain nuclei and the embryos were then evaluated by epi-fluorescence microscopy. Metaphase II porcine oocytes were incubated in vitro with TPEN to determine if the concentration/duration of 100 μM of TPEN for 45 min, as described in the mouse study by Suzuki, et al. (Development 137, 2659-2669, 2010) had any effect on pig oocytes. […] A wide range of TPEN concentrations/durations was tested to identify an optimum concentration of TPEN that can activate pig oocytes; 100 μM, 200 μM, and 250 μM and 30 min-2.5 hours of duration were tested (Table 1). Optimum embryo development was achieved by using 200 μM TPEN for 30 min.

MII oocytes = assay: Intracellular calcium measurement (fura-2); details: oocytes exposed to TPEN 5, 10, and 200 μM
Experimental: The zonae pellucidae were removed after maturation and zona-free oocytes were loaded with the Ca^2+ indicator dye, fura-2. For this purpose, they were incubated in the presence of […] of the acetoxymethyl ester form of the dye and 0.02% pluronic F-127 for 40-50 min (both from Invitrogen). The dye loaded oocytes were transferred into a chamber with a cover-glass bottom and the chamber was then placed on the heated stage of an inverted microscope. Changes in the intracellular free Ca^2+ concentration were recorded using InCytIm2, a dual-wavelength fluorescence imaging system (Intracellular Imaging, Inc.; Cincinnati, Ohio). During measurements the emitted fluorescence was detected at 510 nm after exciting the dye alternately at 340 and 380 nm. The ratio of the two emitted fluorescence intensities was calculated and the data are presented as fluorescence ratio values. Ratios of 1.0 and 5.0 correspond to about 100 and 1,200 nM Ca^2+, respectively. In each treatment group the measurements were repeated at least 5 times using different oocytes.

## c1ccc(CN(CCN(Cc2ccccn2)Cc2ccccn2)Cc2ccccn2)nc1 [TPEN, N,N,N′,N′-tetrakis(2-pyridylmethyl)ethane-1,2-diamine]
SCNT embryos
  Day 6 blastocyst formation: 25.8% (8/31)
  Day 7 blastocyst formation: 35.5% (11/31)
[1]; 100 μM of TPEN for 45 min
  Frequency of forming blastocysts on day 7: 13%
  blastocyst formation on day 5: No blastocyst formation was observed
  expanded blastocysts on day 7: no expanded blastocysts
[1]; 250 μM TPEN over 2.5 hours
  toxic effect on embryo development: toxic effect
[1]; TPEN alone, 100 μM, 2 hr
  % blastocysts: 12.0%
[1]; TPEN alone, 200 μM, 30 min
  % blastocysts: 23.0%
  total number of nuclei in blastocysts: 27.2±1.92
[1]; TPEN alone, 200 μM, 1 hr
  % blastocysts: 20.0%
[1]; TPEN alone, 250 μM, 2 hr
  % blastocysts: 10.0%
MII oocytes
  intracellular Ca2+ increase: does not induce a Ca^2+ increase; also recorded: no Ca^2+ increase was detected
